The test system of data set [1] is SW480 colon carcinoma cells. Particulars: SW480, MTT, 96 h exposure; cited from earlier work.
Data set [2] is described as follows: HPLC-MS stability measurements in PBS. Conditions: PBS pH 7.4, 20 °C, 40 µM. As to the method:
4 µL of stock solution was mixed with 990 µL of PBS buffer (pH 7.4) and 6 µL DMSO to obtain a final concentration of 40 µM. After injection, the chromatogram at 225 nm and the corresponding mass spectra (positive mode) were recorded hourly (4 h) and after 24 h at 20 °C. Peak areas were determined by integrating complex signals of the respective chromatogram. The measurements were performed with an HPLC system (Agilent Technologies, […]) equipped with a C18 column (Waters, Atlantis T3 […], 1.0 × 150 mm^2) coupled to an MS (Bruker, amaZon SL, ESI, positive mode) with a flow rate of 0.2 mL/min at 20 °C and a gradient (5–95%) with Milli-Q water/ACN.

Data set [3] concerns A549 non-small cell lung cancer cells. Particulars: A549, MTT, 96 h exposure; cited from earlier work.
The test system of the next data set is CH1/PA-1 cells. Kind of data set: DCFH-DA assay (ROS levels). The data set is classed as cell-based, human. Conditions: CH1/PA-1, DCFH-DA, up to 2 h.
Another data set relates to pUC19 plasmid. Further details: method as in PMID 34115482. Particulars: cited from earlier work.
In data set [4] the test system is CH1/PA-1 ovarian teratocarcinoma cells. Particulars: CH1/PA-1, MTT, 96 h exposure; cited from earlier work.

By IC50 is commonly meant the concentration at which inhibition is half-maximal. Take `CC1=C([O-])C([O-])(n2cccn2)c2ccccc2C1=O.Cc1ccc(C(C)C)cc1.[Ru+2]` (racemic) [Compound 1]: the IC50 in data set [1] is 0.094 ± 0.031 µM; in data set [3] it was 1.2 ± 0.2 µM; in data set [4], greater than 50 µM. In addition, the “Percentage amount of initial complex remaining” value in data set [2] (after 24 h) is “more than 70%”. The “ROS level, T/C (treated vs negative control)” value in the data set with CH1/PA-1 cells is “≈ 0.5”. Moreover, in the data set on pUC19 plasmid, the “Influence on pUC19 (in words)” value is reported as “only a minor influence on pUC19”.
Take `CC1=C([O-])C([O-])(n2cccn2)c2ccccc2C1=O.Cc1c(C)c(C)c(C)c(C)c1C.[Ru+2]` (centres unmarked) [Compound 6]: the “Percentage amount of initial complex remaining” value in data set [2] (after 4 h) is on record as “less than 70%”.
As for `CC1=C(O)C(=O)c2ccccc2C1=O` [L, 2-Hydroxy-3-methyl-1,4-naphthoquinone], the IC50 was 116 ± 37 µM in data set [1], 210 ± 32 µM in data set [3] and 129 ± 29 µM in data set [4]. In addition, the “Influence on pUC19 (in words)” value in the data set on pUC19 plasmid is “only a minor influence on pUC19”.

(Values after publication PMC9699003, “Arene Variation of Highly Cytotoxic Tridentate Naphthoquinone-Based Ruthenium(II) Complexes and In-Depth In Vitro Studies” (Pharmaceutics, 2022).)
